We go through twelve substances from patent US20240247080A1, “GLP1/GIP/NPY2 RECEPTOR TRIPLE AGONISTS” (Boehringer Ingelheim International GmbH, priority 2022, published 2024).

Format in all cases: cell-based
What all share (conditions): CreLuc reporter gene assay

In one assay the target is T1, hGLP1R (Homo sapiens, UniProt P43220).
T1 construct: expressed in transfected cells; host or cells: HEK-293 cells carrying a CRE-luciferase reporter gene
The assay can be described thus: hGLP1R CreLuc reporter gene assay in 0.5% and 100% plasma. In outline:
(§1)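 Agonist EC50s came from 8-concentration curves over four decades, fitted by non-linear variable-slope regression of CRE-driven luciferase luminescence. Cells were exposed 4 h at 37 °C, in buffer with 0.5% human plasma or in 100% plasma; GIPR was expressed in CHO cells, GLP-1R and NPY2R in HEK cells.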
(In general: A reporter such as luciferase makes a cellular process visible.)

The target in a further assay is T2, hGIPR (Homo sapiens, UniProt P48546).
T2 construct: expressed in transfected cells; host or cells: CHO cells carrying a CRE-luciferase reporter gene
T2 sequence (P48546 22-466): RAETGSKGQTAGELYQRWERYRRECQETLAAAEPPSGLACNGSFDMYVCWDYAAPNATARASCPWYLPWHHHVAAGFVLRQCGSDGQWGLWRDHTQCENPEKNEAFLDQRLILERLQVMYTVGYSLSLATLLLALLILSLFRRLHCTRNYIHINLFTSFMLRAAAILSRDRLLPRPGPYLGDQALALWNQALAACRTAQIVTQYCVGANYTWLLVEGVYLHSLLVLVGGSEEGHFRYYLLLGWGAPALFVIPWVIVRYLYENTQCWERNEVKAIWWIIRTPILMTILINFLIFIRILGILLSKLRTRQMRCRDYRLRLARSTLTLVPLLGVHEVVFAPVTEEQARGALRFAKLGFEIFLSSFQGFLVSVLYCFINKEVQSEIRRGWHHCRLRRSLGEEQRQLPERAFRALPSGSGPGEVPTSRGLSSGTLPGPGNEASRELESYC
The assay can be described thus: hGIPR CreLuc reporter gene assay in 0.5% and 100% plasma. An outline of the steps:
as §1

The target in the next assay is T3, hNPY2R (Homo sapiens, UniProt P49146).
T3 construct: expressed in transfected cells; host or cells: HEK-293 cells carrying a CRE-luciferase reporter gene
T3 sequence (P49146 1-381): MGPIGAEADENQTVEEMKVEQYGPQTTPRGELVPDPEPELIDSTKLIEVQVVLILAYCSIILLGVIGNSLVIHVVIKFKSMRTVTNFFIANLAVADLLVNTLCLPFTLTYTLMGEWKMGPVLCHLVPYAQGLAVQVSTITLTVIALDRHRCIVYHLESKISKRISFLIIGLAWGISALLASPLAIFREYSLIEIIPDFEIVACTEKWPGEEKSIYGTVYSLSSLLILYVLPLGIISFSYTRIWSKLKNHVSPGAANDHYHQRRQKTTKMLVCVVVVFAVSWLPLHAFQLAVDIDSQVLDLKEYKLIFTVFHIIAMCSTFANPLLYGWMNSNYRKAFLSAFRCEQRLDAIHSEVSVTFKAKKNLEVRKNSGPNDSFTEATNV
The assay can be described thus: hNPY2R CreLuc reporter gene assay in 0.5% and 100% plasma. In outline: as §1

[1] abbreviates: 0.5% human plasma, read-out: hGLP1R 0.5% hP.
Where [2] appears, read: 100% human plasma, read-out: hGLP1R 100% hP.
[3] abbreviates: 0.5% human plasma, read-out: hGIPR 0.5% hP.
Where [4] appears, read: 100% human plasma, read-out: hGIPR 100% hP.
Where [5] appears, read: 0.5% human plasma, read-out: hNPY2R 0.5% hP.
[6] abbreviates: 100% human plasma, read-out: hNPY2R 100% hP.

Where two headings read alike, the source gives them in different places. Starred links: 1 amine or outer side, 2 acyl side, 3 side chain; linkers in the order of their positions; H or OH if unused. Non-standard residues stand in square brackets, D forms with d. Groups on a side chain read outwards from the residue. *: point of attachment. C20 diacid = O=C(O)CCCCCCCCCCCCCCCCCCC(=O)*; C18 diacid = O=C(O)CCCCCCCCCCCCCCCCC(=O)*; γGlu = O=C(O)[C@H](CCC(=O)[*:2])N[*:1]; AEEA = NCCOCCOCC(=O)O; Aib = CC(C)(N)C(=O)O

T1 sequence (P43220 24-463): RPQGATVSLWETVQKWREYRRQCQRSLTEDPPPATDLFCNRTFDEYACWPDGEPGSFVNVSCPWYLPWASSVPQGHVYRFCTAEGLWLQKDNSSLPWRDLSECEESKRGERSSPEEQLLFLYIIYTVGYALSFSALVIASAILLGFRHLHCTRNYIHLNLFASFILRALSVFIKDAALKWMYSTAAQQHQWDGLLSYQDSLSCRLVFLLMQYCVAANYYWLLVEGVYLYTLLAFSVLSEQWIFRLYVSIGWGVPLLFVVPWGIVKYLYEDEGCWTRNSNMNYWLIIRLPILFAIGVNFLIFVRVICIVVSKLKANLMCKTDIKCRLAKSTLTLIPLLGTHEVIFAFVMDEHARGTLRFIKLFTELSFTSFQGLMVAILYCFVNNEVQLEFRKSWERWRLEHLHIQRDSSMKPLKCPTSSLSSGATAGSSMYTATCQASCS

Turning to “H-Y[Aib]EGTFTSDYSI[Aib]LEKQAQ[Aib]AFVQWLIK([AEEA-AEEA-Glu-Glu-Glu-Glu-C18 diacid])GGPESGASLRHYYNWLTRQRY-NH2 [Compound 52, Y-Aib-E-G-T-F-T-S-D-Y-S-I-Aib-L-E-K-Q-A-Q-Aib-A-F-V-Q-W-L-I-K(1,3)-GGPESGASLRHYYNWLTRQRY-NH2.C18DA-E-E-E-E-OEG-OEG(1,2)]”, the EC50 on hGLP1R (setting [1]) came out at 0.09 nM; on hGLP1R (setting [2]), 3.17 nM; on hGIPR (setting [3]), 0.12 nM; on hGIPR (setting [4]), 0.65 nM; at hNPY2R (setting [5]), 18.7 nM.
As to “H-Y[Aib]EGTFTSDYSI[Aib]LEKQAQ[Aib]AFVQWLIK([AEEA-AEEA-Glu-Glu-Glu-Glu-C20 diacid])GGPSEGASLRHYYNWLTRQRY-NH2 [Compound 239, Y-Aib-E-G-T-F-T-S-D-Y-S-I-Aib-L-E-K-Q-A-Q-Aib-A-F-V-Q-W-L-I-K(1,3)-GGPSEGASLRHYYNWLTRQRY-NH2.C20DA-E-E-E-E-OEG-OEG(1,2)]”, the EC50 amounted to 0.11 nM at hGLP1R (setting [1]), 4.76 nM at hGLP1R (setting [2]), 0.35 nM at hGIPR (setting [3]) and 13.6 nM at hNPY2R (setting [5]).
For the substance “H-Y[Aib]EGTFTSDYSI[Aib]LEKQAQ[Aib]AFVQWLIK([AEEA-AEEA-γGlu-γGlu-γGlu-C18 diacid])GGPEEGASLRHYYNWLTRQRY-NH2 [Compound 144, Y-Aib-E-G-T-F-T-S-D-Y-S-I-Aib-L-E-K-Q-A-Q-Aib-A-F-V-Q-W-L-I-K(1,3)-GGPEEGASLRHYYNWLTRQRY-NH2.C18DA-gGlu-gGlu-gGlu-OEG-OEG(1,2)]”, the EC50 was found to be 0.16 nM at hGLP1R (setting [1]); 1.15 nM on hGIPR (setting [3]); 0.79 nM at hGIPR (setting [4]); 15.8 nM at hNPY2R (setting [5]); 48.7 nM at hNPY2R (setting [6]).
As for “H-Y[Aib]EGTFTSDYSI[Aib]LEKQAQ[Aib]AFVQWLIK([AEEA-AEEA-γGlu-γGlu-γGlu-γGlu-C18 diacid])GGPEEGASLRHYYNWLTRQRY-NH2 [Compound 146, Y-Aib-E-G-T-F-T-S-D-Y-S-I-Aib-L-E-K-Q-A-Q-Aib-A-F-V-Q-W-L-I-K(1,3)-GGPEEGASLRHYYNWLTRQRY-NH2.C18DA-gGlu-gGlu-gGlu-gGlu-OEG-OEG(1,2)]”, the EC50 on hGLP1R (setting [1]) is 0.14 nM; on hGIPR (setting [3]), 0.77 nM; on hGIPR (setting [4]), 0.73 nM; at hNPY2R (setting [5]), 14 nM.
Regarding “H-Y[Aib]EGTFTSDYSI[Aib]LEKQAQ[Aib]AFVQWLIK([AEEA-AEEA-γGlu-γGlu-γGlu-γGlu-C18 diacid])GGPESGASLRHYYNWLTRQRY-NH2 [Compound 58, Y-Aib-E-G-T-F-T-S-D-Y-S-I-Aib-L-E-K-Q-A-Q-Aib-A-F-V-Q-W-L-I-K(1,3)-GGPESGASLRHYYNWLTRQRY-NH2.C18DA-gGlu-gGlu-gGlu-gGlu-OEG-OEG(1,2)]”, the EC50 at hGLP1R (setting [1]) stood at 0.05 nM; at hGLP1R (setting [2]), 2 nM; on hGIPR (setting [3]), 0.24 nM; at hGIPR (setting [4]), 0.31 nM; on hNPY2R (setting [5]) it was 10.2 nM.
With “H-Y[Aib]EGTFTSDYSI[Aib]LEKQAQ[Aib]AFVQWLIK([AEEA-AEEA-γGlu-γGlu-γGlu-γGlu-C18 diacid])GGPSEGASLRHYYNWLTRQRY-NH2 [Compound 270, Y-Aib-E-G-T-F-T-S-D-Y-S-I-Aib-L-E-K-Q-A-Q-Aib-A-F-V-Q-W-L-I-K(1,3)-GGPSEGASLRHYYNWLTRQRY-NH2.C18DA-gGlu-gGlu-gGlu-gGlu-OEG-OEG(1,2)]”, the EC50 on hGLP1R (setting [1]) was 0.07 nM; at hGLP1R (setting [2]), 1.69 nM; at hGIPR (setting [3]), 0.12 nM; on hGIPR (setting [4]), 0.71 nM; at hNPY2R (setting [6]), 21.1 nM.
Turning to “H-Y[Aib]EGTFTSDYSI[Aib]LEKQAQ[Aib]AFVQWLIK([AEEA-AEEA-γGlu-γGlu-γGlu-γGlu-C18 diacid])GGPSEPASLRHYYNWLTRQRY-NH2 [Compound 173, Y-Aib-E-G-T-F-T-S-D-Y-S-I-Aib-L-E-K-Q-A-Q-Aib-A-F-V-Q-W-L-I-K(1,3)-GGPSEPASLRHYYNWLTRQRY-NH2.C18DA-gGlu-gGlu-gGlu-gGlu-OEG-OEG(1,2)]”, the EC50 was 0.11 nM at hGLP1R (setting [1]); 3.07 nM at hGLP1R (setting [2]); 0.27 nM at hGIPR (setting [3]); 0.94 nM on hGIPR (setting [4]); 12.4 nM on hNPY2R (setting [5]); 24.9 nM on hNPY2R (setting [6]).
With “H-Y[Aib]EGTFTSDYSI[Aib]LEKQAQ[Aib]AFVQWLIK([AEEA-AEEA-γGlu-γGlu-γGlu-γGlu-C20 diacid])GGPEEGASLRHYYNWLTRQRY-NH2 [Compound 193, Y-Aib-E-G-T-F-T-S-D-Y-S-I-Aib-L-E-K-Q-A-Q-Aib-A-F-V-Q-W-L-I-K(1,3)-GGPEEGASLRHYYNWLTRQRY-NH2.C20DA-gGlu-gGlu-gGlu-gGlu-OEG-OEG(1,2)]”, the EC50 on hGLP1R (setting [1]) was found to be 0.36 nM; at hGIPR (setting [3]) it was 0.5 nM; on hNPY2R (setting [5]), 13.6 nM.
Regarding “H-Y[Aib]EGTFTSDYSI[Aib]LEKQAQ[Aib]AFVQWLIK([AEEA-AEEA-γGlu-γGlu-γGlu-γGlu-γGlu-C18 diacid])GGPESGASLRHYYNWLTRQRY-NH2 [Compound 55, Y-Aib-E-G-T-F-T-S-D-Y-S-I-Aib-L-E-K-Q-A-Q-Aib-A-F-V-Q-W-L-I-K(1,3)-GGPESGASLRHYYNWLTRQRY-NH2.C18DA-gGlu-gGlu-glu-gGlu-gGlu-OEG-OEG(1,2)]”, the EC50 at hGLP1R (setting [1]) stood at 0.09 nM; at hGLP1R (setting [2]), 4.17 nM; on hGIPR (setting [3]), 0.12 nM; on hNPY2R (setting [6]), 53.4 nM.
“H-Y[Aib]EGTFTSDYSI[Aib]LEKQAQ[Aib]AFVQWLIK([AEEA-AEEA-γGlu-γGlu-γGlu-γGlu-γGlu-C18 diacid])GGPSEGASLRHYYNWLTRQRY-NH2 [Compound 246, Y-Aib-E-G-T-F-T-S-D-Y-S-I-Aib-L-E-K-Q-A-Q-Aib-A-F-V-Q-W-L-I-K(1,3)-GGPSEGASLRHYYNWLTRQRY-NH2.C18DA-gGlu-gGlu-gGlu-gGlu-gGlu-OEG-OEG(1,2)]”: the EC50 at hGLP1R (setting [1]) came out at 0.11 nM; on hGIPR (setting [3]), 0.16 nM; on hGIPR (setting [4]), 0.95 nM; on hNPY2R (setting [5]), 12.8 nM; on hNPY2R (setting [6]), 28.2 nM.
The matching figures for “H-Y[Aib]EGTFTSDYSI[Aib]LEKQAQ[Aib]AFVQWLIK([AEEA-AEEA-γGlu-γGlu-γGlu-γGlu-γGlu-C18 diacid])GGPSEPASLRHYYNWLTRQRY-NH2 [Compound 142, Y-Aib-E-G-T-F-T-S-D-Y-S-I-Aib-L-E-K-Q-A-Q-Aib-A-F-V-Q-W-L-I-K(1,3)-GGPSEPASLRHYYNWLTRQRY-NH2.C18DA-gGlu-gGlu-gGlu-gGlu-gGlu-OEG-OEG(1,2)]”: 0.12 nM, 0.28 nM, 1.15 nM, 13 nM and 28.2 nM.
With “H-Y[Aib]EGTFTSDYSI[Aib]LEKQAQ[Aib]AFVQWLIK([AEEA-AEEA-γGlu-γGlu-γGlu-γGlu-γGlu-C20 diacid])GGPESGASLRHYYNWLTRQRY-NH2 [Compound 32, Y-Aib-E-G-T-F-T-S-D-Y-S-I-Aib-L-E-K-Q-A-Q-Aib-A-F-V-Q-W-L-I-K(1,3)-GGPESGASLRHYYNWLTRQRY-NH2.C20DA-gGlu-gGlu-gGlu-gGlu-gGlu-OEG-OEG(1,2)]”, the EC50 is 0.07 nM on hGLP1R (setting [1]); 0.16 nM at hGIPR (setting [3]); 1.15 nM on hGIPR (setting [4]); 12.2 nM at hNPY2R (setting [5]); 49.3 nM at hNPY2R (setting [6]).
